Results reported in the supplement of paper PMC10307832.

Experiments:
Assay in all cases: relative viability (nuclei count vs DMSO), 5 days (fraction); higher = more cells survive
NCI-H1944 = tested on: NCI-H1944
Summary of the method: (§1)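 Relative viability is defined as nuclei in treated wells over nuclei in vehicle wells. Duplicate plates were run and medians reported. Lung cancer cell lines in 1536-well plates were dosed by pin tool one day after seeding, with one drug or with a fixed anchor-drug dose plus five library-drug doses (not always all listed) in √10 steps, and nuclei were counted after 5 days.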

NCI-H3122 = tested on: NCI-H3122
Summary of the method: as §1

NCI-H460 = tested on: NCI-H460
Summary of the method: as §1

NCI-H1915 = tested on: NCI-H1915
Summary of the method: as §1

HCC-78 = tested on: HCC-78
Summary of the method: as §1

COR-L23 = tested on: COR-L23
Summary of the method: as §1

LK-2 = tested on: LK-2
Summary of the method: as §1

PC-14 = tested on: PC-14
Summary of the method: as §1

NCI-H727 = tested on: NCI-H727
Summary of the method: as §1

HCC-44 = tested on: HCC-44
Summary of the method: as §1

NCI-H1975 = tested on: NCI-H1975
Summary of the method: as §1

A-427 = tested on: A-427
Summary of the method: as §1

HARA = tested on: HARA
Summary of the method: as §1

NCI-H2405 = tested on: NCI-H2405
Summary of the method: as §1

NCI-H2023 = tested on: NCI-H2023
Summary of the method: as §1

HCC-366 = tested on: HCC-366
Summary of the method: as §1

EBC-1 = tested on: EBC-1
Summary of the method: as §1

HCC-15 = tested on: HCC-15
Summary of the method: as §1

COR-L 105 = tested on: COR-L 105
Summary of the method: as §1

NCI-H1563 = tested on: NCI-H1563
Summary of the method: as §1

201T = tested on: 201T
Summary of the method: as §1

LCLC-97TM1 = tested on: LCLC-97TM1
Summary of the method: as §1

NCI-H1666 = tested on: NCI-H1666
Summary of the method: as §1

NCI-H1437 = tested on: NCI-H1437
Summary of the method: as §1

Nc1cccc2c1CN(C1CCC(=O)NC1=O)C2=O (stereo unspecified) [Lenalidomide] + CS(=O)(=O)N1CCN(Cc2cc3nc(-c4cccc5[nH]ncc45)nc(N4CCOCC4)c3s2)CC1 [Pictilisib] (partner 1 µM)
relative viability (NCI-H1944; first compound 0.253 µM): 0.382
relative viability (NCI-H1944; first compound 0.8 µM): 0.309
relative viability (NCI-H1944; first compound 2.53 µM): 0.319
relative viability (NCI-H1944; first compound 8 µM): 0.287
relative viability (NCI-H3122; first compound 0.253 µM): 0.653
relative viability (NCI-H3122; first compound 0.8 µM): 0.733
relative viability (NCI-H3122; first compound 2.53 µM): 0.589
relative viability (NCI-H3122; first compound 8 µM): 0.414
relative viability (NCI-H460; first compound 0.253 µM): 0.363
relative viability (NCI-H460; first compound 0.8 µM): 0.263
relative viability (NCI-H460; first compound 2.53 µM): 0.25
relative viability (NCI-H460; first compound 8 µM): 0.264
relative viability (NCI-H1915; first compound 0.253 µM): 0.9
relative viability (NCI-H1915; first compound 0.8 µM): 0.793
relative viability (NCI-H1915; first compound 2.53 µM): 1
relative viability (NCI-H1915; first compound 8 µM): 0.857
relative viability (HCC-78; first compound 0.253 µM): 0.233
relative viability (HCC-78; first compound 0.8 µM): 0.185
relative viability (HCC-78; first compound 2.53 µM): 0.232
relative viability (HCC-78; first compound 8 µM): 0.174
relative viability (COR-L23; first compound 0.253 µM): 0.778
relative viability (COR-L23; first compound 0.8 µM): 0.7
relative viability (COR-L23; first compound 2.53 µM): 0.924
relative viability (COR-L23; first compound 8 µM): 0.64
relative viability (LK-2; first compound 0.253 µM): 0.602
relative viability (LK-2; first compound 2.53 µM): 0.599
relative viability (LK-2; first compound 8 µM): 0.538
relative viability (PC-14; first compound 0.253 µM): 0.691
relative viability (PC-14; first compound 0.8 µM): 0.618
relative viability (PC-14; first compound 2.53 µM): 0.719
relative viability (PC-14; first compound 8 µM): 0.713
relative viability (NCI-H727; first compound 0.253 µM): 0.418
relative viability (NCI-H727; first compound 2.53 µM): 0.44
relative viability (NCI-H727; first compound 8 µM): 0.306
relative viability (HCC-44; first compound 0.253 µM): 0.525
relative viability (HCC-44; first compound 0.8 µM): 0.409
relative viability (HCC-44; first compound 2.53 µM): 0.58
relative viability (HCC-44; first compound 8 µM): 0.433
relative viability (NCI-H1975; first compound 0.253 µM): 0.316
relative viability (NCI-H1975; first compound 0.8 µM): 0.228
relative viability (NCI-H1975; first compound 2.53 µM): 0.278
relative viability (NCI-H1975; first compound 8 µM): 0.223
relative viability (A-427; first compound 0.253 µM): 0.796
relative viability (A-427; first compound 2.53 µM): 0.744
relative viability (A-427; first compound 8 µM): 0.676
relative viability (HARA; first compound 0.253 µM): 0.367
relative viability (HARA; first compound 0.8 µM): 0.327
relative viability (HARA; first compound 2.53 µM): 0.438
relative viability (HARA; first compound 8 µM): 0.206
relative viability (NCI-H2405; first compound 0.253 µM): 0.423
relative viability (NCI-H2405; first compound 0.8 µM): 0.438
relative viability (NCI-H2405; first compound 2.53 µM): 0.37
relative viability (NCI-H2405; first compound 8 µM): 0.269
relative viability (NCI-H2023; first compound 0.253 µM): 0.254
relative viability (NCI-H2023; first compound 0.8 µM): 0.176
relative viability (NCI-H2023; first compound 2.53 µM): 0.268
relative viability (NCI-H2023; first compound 8 µM): 0.187
relative viability (HCC-366; first compound 0.253 µM): 0.131
relative viability (HCC-366; first compound 0.8 µM): 0.108
relative viability (HCC-366; first compound 2.53 µM): 0.172
relative viability (HCC-366; first compound 8 µM): 0.157
relative viability (EBC-1; first compound 0.253 µM): 0.398
relative viability (EBC-1; first compound 0.8 µM): 0.323
relative viability (EBC-1; first compound 2.53 µM): 0.498
relative viability (EBC-1; first compound 8 µM): 0.512
relative viability (HCC-15; first compound 0.253 µM): 0.744
relative viability (HCC-15; first compound 2.53 µM): 0.768
relative viability (HCC-15; first compound 8 µM): 0.668
relative viability (COR-L 105; first compound 0.253 µM): 0.278
relative viability (COR-L 105; first compound 0.8 µM): 0.398
relative viability (COR-L 105; first compound 2.53 µM): 0.554
relative viability (COR-L 105; first compound 8 µM): 0.363
relative viability (NCI-H1563; first compound 0.253 µM): 0.713
relative viability (NCI-H1563; first compound 0.8 µM): 0.667
relative viability (NCI-H1563; first compound 2.53 µM): 0.685
relative viability (NCI-H1563; first compound 8 µM): 0.638
relative viability (201T; first compound 0.253 µM): 0.72
relative viability (201T; first compound 0.8 µM): 0.532
relative viability (201T; first compound 2.53 µM): 0.678
relative viability (201T; first compound 8 µM): 0.603
relative viability (LCLC-97TM1; first compound 0.8 µM): 0.182
relative viability (LCLC-97TM1; first compound 2.53 µM): 0.261
relative viability (LCLC-97TM1; first compound 8 µM): 0.165
relative viability (NCI-H1666; first compound 0.253 µM): 0.471
relative viability (NCI-H1666; first compound 0.8 µM): 0.372
relative viability (NCI-H1666; first compound 2.53 µM): 0.495
relative viability (NCI-H1666; first compound 8 µM): 0.488
relative viability (NCI-H1437; first compound 0.253 µM): 0.547
relative viability (NCI-H1437; first compound 0.8 µM): 0.591
relative viability (NCI-H1437; first compound 2.53 µM): 0.592
relative viability (NCI-H1437; first compound 8 µM): 0.344
